Data reported in patent US20200390755A1, “COMPOUND FOR TREATING NERVOUS SYSTEM DISEASES AND USE THEREOF” (SHAANXI MICOT TECHNOLOGY CO., LTD., priority 2018, published 2020).
Marks after values point to notes of the source that are not given here.

Key:
[1] = system: N171-82Q HD mice; assay: In vivo MRI scan and brain volume measurement, HD mice; parameters: species or system mouse; settings: 5 mg/kg/d, administered until 24 weeks, n = 4
Protocol: (§1) 7-week-old N171-82Q HD male mice were paired with female B6C3F1/J hybrid mice to obtain newborn mice. From 21 days of age, male mice were housed in separate cages. 0.5 cm of mouse tail tissue was removed to extract DNA to determine the genotype of the mouse, such that N171-82Q HD mice and WT mice needed for the experiment were obtained. The mice were randomly divided into WT Vehicle group (normal mice), WT test compound group (administration group of normal mice, 5 mg/kg/d, n=10), HD Vehicle group (blank group of HD mice, n=15), HD test compound group (administration groups 1-5 of HD mice, 5 mg/kg/d, n=10). The test compound was suspended in 1% CMC-Na solution and administered by intragastric administration until the end of the study. The weights of the mice were measured every week. Behavioral tests were performed at 12 weeks, 18 weeks, and 24 weeks of age to investigate motor function. At 20 weeks, 3 samples of tissue from each group were used for western blotting and immunohistochemistry. At 24 weeks, MRI scans were performed. At the end of the study, the effect of the test compound on the mortality of mice was evaluated.
The WT Vehicle group, WT test compound group, HD Vehicle group and HD test compound group were administered until 24 weeks, and 4 mice in each group were taken for in vivo MRI scanning and brain volume measurement. A 9.4 T MRI scanner equipped with three-axis gradient and animal imaging probes was used. The mice were anesthetized with 1% isoflurane. The breath of mice was monitored, and constant temperature was maintained throughout the scan. Three-dimensional T2 weighted fast spin echo sequence technology was used to obtain images. The imaging resolution and contrast of this technology were sufficient to automatically describe the volume of the mouse brain and substructures. The parameters were as follows: echo time (TE)/repetition time (TR) ^1/440/700 ms, resolution ^1/40.1×0.1×0.1 mm, echo train length ^1/44, average number ^1/42 and flip angle ^1/4408. The instrument contained a powerful linux cluster that can encode and run large-scale deformation diffusion metric maps (LDDMM) to obtain high-intensity standardized images. These transformations encoded morphological differences between images and analyzed based on deformation morphological measurements (DBM) to detect regional changes in brain volume. The volume of the whole brain (Brain), […] was analyzed.
The MRI scanning technology was used to analyze the morphological differences between the experimental object and the template image, and the LDDMM method was used to calculate and analyze the brain tissue structure of the mouse. The statistical results of the brain volume, striatum volume, and neurocortex volume of the test compound Example 1 are shown in FIG. 3, in which FIG. 3A is the statistical results of the whole brain volume, and FIG. 3B is the statistical results of striatum volume, and FIG. 3C is the statistical results of neurocortex volume.

[2] = system: N171-82Q HD mice; assay: Immunohistochemical analysis of mHtt protein aggregates in neurocortex (EM48); type: in vivo, mouse; settings: 5 mg/kg/d until 25 weeks, six visual fields, n = 3
Protocol: as §1
After the behavioral evaluation of the mice in each experimental group was completed and the administration continued until 25 weeks, 3 mice were taken from each group for […]. The right brain isolated from the mice was post-fixed in 4% paraformaldehyde for 24 h. The post-fixed brain tissue was put into 30% sucrose solution to allow it to sink to the bottom, and then brain slices with a thickness of 35 m were cut along the crown with a freezing microtome and placed in DPBS for storage. The stored brain slices were rinsed once with PBS, and blocked with 1 mL goat serum+9 mL PBS+1% TritonX-100 at room temperature on a shaker for 2˜3 h. After blocking, the brain slices were rinsed for 3 times with PBS, 5 min each time. Brain slices were taken out with a small brush and placed in a 24-well plate with primary antibody (anti-Huntingtin, clone mEM48, 1:25, mouse, prepared with blocking solution) for overnight incubation on a shaker in cold room at […]. After washing with PBS, brain slices were placed in a 24-well plate with secondary antibody (555, anti-mouse) for washing, and incubated on a shaker at room temperature for 2 h. After washing with PBS, brain slices was placed in a 24-well plate containing 800 μL DAPI (prepared with PBS, 1:10000) for staining on a shaker at room temperature for 10 min. The brain slices were taken out and placed in a 24-well plate containing 800 μL of PBS for washing on a shaker at room temperature for 10 min. The slide was placed flat on the experimental table with the front side facing upwards, and PBS was added dropwise on the slide to expand the brain slice in PBS. After drying, the mHtt protein was immunofluorescently stained with EM48 antibody (anti-Huntingtin) and photographed for observation.
After immunofluorescence staining of brain tissue, cells with mHtt protein aggregation in six visual fields in the right neurocortex were counted, and the average value was taken for analysis and statistics. A representative image of a neurocortex immunostained with the EM48 antibody for test compound example 1 is shown in FIG. 5, in which the scale bars are 50 μm, and the light-colored dots are cells with mHtt protein aggregation.

SMILES	MRI volume, Neurocortex [1]	MRI volume, Striatum [1]	MRI volume, Whole brain [1]	Average number of cells with mHtt protein aggregation [2]
O=c1cc(-c2ccc(N3CCCCC3)cc2)oc2c(O)c(O)ccc12 [Example 1, 7,8-dihydroxy-2-(4-(piperidin-1-yl)phenyl)-4H-chromen-4-one]	18.90 ± 0.341** mm^3	79.47 ± 1.079** mm^3	460.47 ± 2.145** mm^3	152.500 ± 7.920
COc1ccc2c(=O)cc(-c3ccc(N4CCCCC4)cc3)oc2c1OC [Example 2, 7,8-dimethoxy-2-(4-(piperidin-1-yl)phenyl)-4H-chromen-4-one]	18.68 ± 0.598** mm^3	79.10 ± 0.976** mm^3	449.97 ± 7.279** mm^3	158.449 ± 13.260
CN(C)C1CCN(c2ccc(-c3cc(=O)c4ccc(O)c(O)c4o3)cc2)CC1 [Example 3, 2-(4-(4-(dimethylamino)piperidin-1-yl)phenyl)-7,8-dihydroxy-4H-chromen-4-one]	19.05 ± 0.997** mm^3	80.34 ± 1.238** mm^3	465.33 ± 9.218** mm^3	148.794 ± 10.157
CC1(C)CCN(c2ccc(-c3cc(=O)c4ccc(O)c(O)c4o3)cc2)CC1 [Example 4, 2-(4-(4,4-dimethylpiperidin-1-yl)phenyl)-7,8-dihydroxy-4H-chromen-4-one]	18.59 ± 0.899** mm^3	79.03 ± 1.834** mm^3	461.31 ± 3.451** mm^3	155.286 ± 9.567
CC1CC(C)CN(c2ccc(-c3cc(=O)c4ccc(O)c(O)c4o3)cc2)C1 (centres unmarked) [Example 5, 2-(4-(3,5-dimethylpiperidin-1-yl)phenyl)-7,8-dihydroxy-4H-chromen-4-one]	19.01 ± 0.557** mm^3	79.43 ± 0.898** mm^3	462.19 ± 2.178** mm^3	151.687 ± 8.365
